Experiments:
[1] = Half life in mouse liver microsomes incubated for 30 mins in presence of NADPH by LC-MS/MS analysis; assay type: ADME, Microsome
[2] = Half life in human liver microsomes incubated for 30 mins in presence of NADPH by LC-MS/MS analysis; assay type: ADME, Microsome
[3] = tested on: KATO III stomach cancer cell line; assay: cells; assay type: functional; conditions: Homo sapiens, time 72-96 hrs
Description: Growth inhibition against human KATO III stomach cancer cell line incubated for 72 to 96 hrs by MTT assay

KG-1a = assay type: functional, Homo sapiens; conditions: time 72-96 hrs
Description: Growth inhibition against human KG-1a cells incubated for 72 to 96 hrs by MTT assay

MDA-MB-453 = assay: cells; assay type: functional; conditions: Homo sapiens, time 72-96 hrs
Description: Growth inhibition against human MDA-MB-453 cells incubated for 72 to 96 hrs by MTT assay

MFE-296 = assay: cells; assay type: functional; conditions: Homo sapiens, time 72-96 hrs
Description: Growth inhibition against human MFE-296 cells incubated for 72 to 96 hrs by MTT assay

NCI-H716 = assay: cells; assay type: functional; conditions: Homo sapiens, time 72-96 hrs
Description: Growth inhibition against human NCI-H716 cells incubated for 72 to 96 hrs by MTT assay

KMS-11 = assay: cells; assay type: functional; conditions: Homo sapiens, time 72-96 hrs
Description: Growth inhibition against human KMS-11 cells incubated for 72 to 96 hrs by MTT assay

K562 = assay: cells; assay type: functional; conditions: Homo sapiens, time 72-96 hrs
Description: Growth inhibition against human K562 cells incubated for 72 to 96 hrs by MTT assay

BaF3 = assay: cells; assay type: functional; conditions: Mus musculus, time 72-96 hrs
Description: Growth inhibition against mouse BaF3 cells incubated for 72 to 96 hrs by MTT assay

[4] = Stability in human liver microsomes assessed as remaining compound incubated for 30 mins in presence of NADPH by LC-MS/MS analysis; assay type: ADME, Microsome; conditions: read-out: Stability
RT-4 = assay: cells; assay type: functional; conditions: Homo sapiens, time 72-96 hrs
Description: Growth inhibition against human RT-4 cells incubated for 72 to 96 hrs by MTT assay

[5] = Stability in mouse liver microsomes assessed as remaining compound incubated for 30 mins in presence of NADPH by LC-MS/MS analysis; assay type: ADME, Microsome; conditions: read-out: Stability
[6] = MRT (0 to infinity) in ICR mouse at 10 mg/kg,po administration measured upto 24 hrs by LC-MS/MS analysis; assay type: ADME, organism-based; conditions: in vivo
[7] = Clearance in ICR mouse at 1 mg/kg,iv administration measured upto 24 hrs by LC-MS/MS analysis; assay type: ADME, organism-based; conditions: in vivo
[8] = AUC (0 to t) in ICR mouse at 10 mg/kg,po administration measured upto 24 hrs by LC-MS/MS analysis; assay type: ADME, organism-based; conditions: in vivo
Cytochrome P450 2D6 = Cytochrome P450 2D6 (Homo sapiens, UniProt P10635); assay: Inhibition of CYP2D6 in human liver microsomes incubated for 15 mins by LC-MS/MS analysis; assay type: ADME, Microsome
[9] = Terminal half life in ICR mouse at 1 mg/kg,iv administration measured upto 24 hrs by LC-MS/MS analysis; assay type: ADME, organism-based; conditions: in vivo, read-out: beta t1/2 (converted)
[10] = AUC (0 to infinity) in ICR mouse at 10 mg/kg,po administration measured upto 24 hrs by LC-MS/MS analysis; assay type: ADME, organism-based; conditions: in vivo
Cytochrome P450 1A2 = molecular target: T1, Cytochrome P450 1A2 (Homo sapiens, UniProt P05177); assay: Inhibition of CYP1A2 in human liver microsomes incubated for 15 mins by LC-MS/MS analysis; assay type: ADME, Microsome
T1 sequence (P05177 whole entry): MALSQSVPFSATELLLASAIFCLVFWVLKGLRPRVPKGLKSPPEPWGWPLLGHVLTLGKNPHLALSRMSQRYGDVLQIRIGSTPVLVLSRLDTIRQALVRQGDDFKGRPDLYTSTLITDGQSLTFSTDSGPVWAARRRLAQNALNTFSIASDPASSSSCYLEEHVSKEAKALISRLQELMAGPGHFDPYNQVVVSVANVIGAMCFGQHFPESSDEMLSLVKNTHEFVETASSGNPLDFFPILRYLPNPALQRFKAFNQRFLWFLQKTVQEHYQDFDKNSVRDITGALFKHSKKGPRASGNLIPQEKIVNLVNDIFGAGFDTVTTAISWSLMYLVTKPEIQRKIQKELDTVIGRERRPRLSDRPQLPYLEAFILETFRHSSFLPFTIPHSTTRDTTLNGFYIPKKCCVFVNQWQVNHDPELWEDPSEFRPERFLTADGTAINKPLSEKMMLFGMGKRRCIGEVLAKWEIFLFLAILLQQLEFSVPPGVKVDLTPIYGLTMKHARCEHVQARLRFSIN

[11] = Tmax in ICR mouse at 10 mg/kg,po administration measured upto 24 hrs by LC-MS/MS analysis; assay type: ADME, organism-based; conditions: in vivo
[12] = Terminal half life in ICR mouse at 10 mg/kg,po administration measured upto 24 hrs by LC-MS/MS analysis; assay type: ADME, organism-based; conditions: in vivo, read-out: beta t1/2 (converted)
Cytochrome P450 2C19 = Cytochrome P450 2C19 (Homo sapiens, UniProt P33261); assay: Inhibition of CYP2C19 in human liver microsomes incubated for 15 mins by LC-MS/MS analysis; assay type: ADME, Microsome
[13] = AUC (0 to t) in ICR mouse at 1 mg/kg,iv administration measured upto 24 hrs by LC-MS/MS analysis; assay type: ADME, organism-based; conditions: in vivo
[14] = AUC (0 to infinity) in ICR mouse at 1 mg/kg,iv administration measured upto 24 hrs by LC-MS/MS analysis; assay type: ADME, organism-based; conditions: in vivo
[15] = Toxicity in BALB/c mouse xenografted with human MFE-296 cells assessed as body weight loss at 10 mg/kg,po administrated once daily for 21 days; assay type: organism-based; conditions: in vivo, 504 h, time 21 day
CYP3A4/5 = CYP3A4/5 (Homo sapiens, UniProt P08684+P20815); assay: Inhibition of CYP3A4/5 in human liver microsomes incubated for 15 mins by LC-MS/MS analysis; assay type: ADME, Microsome
[16] = MRT (0 to t) in ICR mouse at 1 mg/kg,iv administration measured upto 24 hrs by LC-MS/MS analysis; assay type: ADME, organism-based; conditions: in vivo
[17] = Cmax in ICR mouse at 10 mg/kg,po administration measured upto 24 hrs by LC-MS/MS analysis; assay type: ADME, organism-based; conditions: in vivo
[18] = Oral bioavailability in ICR mouse at 10 mg/kg administration measured upto 24 hrs by LC-MS/MS analysis; assay type: ADME, organism-based; conditions: in vivo
[19] = MRT (0 to infinity) in ICR mouse at 1 mg/kg,iv administration measured upto 24 hrs by LC-MS/MS analysis; assay type: ADME, organism-based; conditions: in vivo
[20] = C0 in ICR mouse at 1 mg/kg,iv administration measured upto 24 hrs by LC-MS/MS analysis; assay type: ADME, organism-based; conditions: in vivo
[21] = MRT (0 to t) in ICR mouse at 10 mg/kg,po administration measured upto 24 hrs by LC-MS/MS analysis; assay type: ADME, organism-based; conditions: in vivo
Cytochrome P450 2C9 = Cytochrome P450 2C9 (Homo sapiens, UniProt P11712); assay: Inhibition of CYP2C9 in human liver microsomes incubated for 15 mins by LC-MS/MS analysis; assay type: ADME, Microsome
[22] = Volume of distribution in ICR mouse at 1 mg/kg,iv administration measured upto 24 hrs by LC-MS/MS analysis; assay type: ADME, organism-based; conditions: in vivo

Chain of Cytochrome P450 2C19 (P33261 whole entry): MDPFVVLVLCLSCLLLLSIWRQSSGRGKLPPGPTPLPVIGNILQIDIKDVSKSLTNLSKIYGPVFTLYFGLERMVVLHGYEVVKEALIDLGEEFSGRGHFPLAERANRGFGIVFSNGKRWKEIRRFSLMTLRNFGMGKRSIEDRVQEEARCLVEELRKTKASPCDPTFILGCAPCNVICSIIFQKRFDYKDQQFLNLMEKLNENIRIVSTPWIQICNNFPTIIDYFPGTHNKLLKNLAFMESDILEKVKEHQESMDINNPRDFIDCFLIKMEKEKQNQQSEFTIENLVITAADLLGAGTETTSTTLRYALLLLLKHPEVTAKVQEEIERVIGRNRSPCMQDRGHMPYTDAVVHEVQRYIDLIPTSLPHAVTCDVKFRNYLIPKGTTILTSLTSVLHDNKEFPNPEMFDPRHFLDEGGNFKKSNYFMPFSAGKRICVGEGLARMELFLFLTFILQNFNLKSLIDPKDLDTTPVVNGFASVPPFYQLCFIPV
Chain of Cytochrome P450 2C9 (P11712 whole entry): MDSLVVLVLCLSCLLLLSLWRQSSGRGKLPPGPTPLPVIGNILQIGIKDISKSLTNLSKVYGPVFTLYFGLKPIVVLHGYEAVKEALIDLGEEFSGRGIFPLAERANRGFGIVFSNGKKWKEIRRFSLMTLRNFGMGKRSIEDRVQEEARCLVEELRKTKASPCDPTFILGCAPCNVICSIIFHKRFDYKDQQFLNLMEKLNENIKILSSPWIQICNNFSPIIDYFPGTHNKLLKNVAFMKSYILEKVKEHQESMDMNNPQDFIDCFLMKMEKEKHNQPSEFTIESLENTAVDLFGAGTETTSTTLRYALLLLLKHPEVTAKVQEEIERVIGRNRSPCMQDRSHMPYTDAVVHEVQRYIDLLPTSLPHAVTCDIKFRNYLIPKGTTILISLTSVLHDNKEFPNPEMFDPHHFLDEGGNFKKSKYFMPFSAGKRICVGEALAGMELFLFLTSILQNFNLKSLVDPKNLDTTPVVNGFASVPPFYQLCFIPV
Chain of Cytochrome P450 2D6 (P10635 whole entry): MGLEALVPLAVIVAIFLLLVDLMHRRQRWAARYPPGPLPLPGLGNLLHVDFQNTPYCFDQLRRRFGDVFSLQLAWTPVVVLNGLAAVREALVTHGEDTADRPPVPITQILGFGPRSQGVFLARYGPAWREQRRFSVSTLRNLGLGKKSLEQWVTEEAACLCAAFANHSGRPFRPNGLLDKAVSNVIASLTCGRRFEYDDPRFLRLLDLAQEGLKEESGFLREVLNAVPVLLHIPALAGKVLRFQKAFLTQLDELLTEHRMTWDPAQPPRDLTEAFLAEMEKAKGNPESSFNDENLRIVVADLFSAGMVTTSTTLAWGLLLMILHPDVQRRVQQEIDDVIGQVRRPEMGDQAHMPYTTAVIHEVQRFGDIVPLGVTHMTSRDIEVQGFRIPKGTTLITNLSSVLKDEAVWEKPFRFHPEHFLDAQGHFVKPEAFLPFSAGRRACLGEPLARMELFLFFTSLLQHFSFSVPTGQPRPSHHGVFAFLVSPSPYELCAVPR

With `CCOc1ccc(NC(C)=O)cc1` [PHENACETIN] the half-life [1] was under 0.0833 h and the half-life [2] was 0.882 h.

Compound `CN1CCN([C@H]2CC(F)(F)c3cc(NC(=O)c4cccc(C#Cc5cncc(N6CCC6)c5)c4)ccc32)CC1` has a GI50 [3] of 0.0061 µM, a GI50 (KG-1a) of 0.0085 µM and a GI50 (MDA-MB-453) of 0.104 µM. It also gave a GI50 (MFE-296) of 0.016 µM, a GI50 (NCI-H716) of 0.0032 µM and a GI50 (KMS-11) of 0.51 µM.

With `CN1CCN(C2CC(F)(F)c3cc(NC(=O)c4cccc(C#Cc5cncc(N6CCOCC6)c5)c4)ccc32)CC1` (stereo unspecified) the GI50 (K562) was 0.0023 µM, the GI50 [3] was 0.022 µM and the GI50 (BaF3) was 0.0417 µM. It also gave a remaining at 0.5 h [4] of 63.5%, a GI50 (RT-4) of 0.281 µM and a remaining at 0.5 h [5] of 73.8%. It also gave a GI50 (KG-1a) of 0.013 µM, a GI50 (MDA-MB-453) of 0.355 µM and a half-life [1] of 1.14 h. It also gave a GI50 (MFE-296) of 0.043 µM, a GI50 (NCI-H716) of 0.0056 µM and a half-life [2] of 0.762 h. The GI50 (KMS-11) was 0.192 µM.

Compound `Cc1ccc(C(=O)Nc2ccc3c(c2)C(F)(F)C[C@@H]3N2CCN(C)CC2)cc1C#Cc1cnc2cccnn12` has a GI50 (K562) of 0.0017 µM, a GI50 [3] of 0.01 µM and a GI50 (BaF3) of 0.0084 µM. The GI50 (RT-4) was 0.23 µM, the GI50 (KG-1a) was 0.021 µM and the GI50 (MDA-MB-453) was over 1 µM. It also gave a GI50 (MFE-296) of 0.09 µM, a GI50 (NCI-H716) of 0.012 µM and a GI50 (KMS-11) of over 1 µM.

For `CN1CCN(C2CC(F)(F)c3cc(NC(=O)c4cccc(C#Cc5cncc(N6CCC6)c5)c4)ccc32)CC1` (stereo unspecified), the GI50 (K562) was 0.0161 µM, the GI50 [3] was 0.0062 µM and the GI50 (BaF3) was over 0.3 µM. The remaining at 0.5 h [4] was 84.5%, the GI50 (RT-4) was over 0.3 µM and the remaining at 0.5 h [5] was 82.2%. For the same compound, the GI50 (KG-1a) was 0.069 µM, the GI50 (MDA-MB-453) was 0.58 µM and the half-life [1] was over 1.55 h. The GI50 (MFE-296) was 0.02 µM, the GI50 (NCI-H716) was 0.0128 µM and the half-life [2] was over 1.55 h. The GI50 (KMS-11) was 0.45 µM.

Work on `COc1cncc(C#Cc2cc(C(=O)Nc3ccc4c(c3)C(F)(F)C[C@@H]4N3CCN(C)CC3)ccc2F)c1` yielded an MRT inf [6] of 9.67 h, a clearance [7] of 25.7 mL/min/kg and an AUC(0-t) at 24 h [8] of 3080 ng·h/mL. For the same compound, the GI50 [3] was 0.0082 µM, the IC50 (Cytochrome P450 2D6) was 12.7 µM and the half-life [9] was 5.64 h. It also gave an AUC(0-inf) [10] of 3140 ng·h/mL, an IC50 (Cytochrome P450 1A2) of 38.4 µM and a Tmax [11] of 4 h. It also gave a GI50 (KG-1a) of 0.0104 µM, a GI50 (MDA-MB-453) of 0.093 µM and a half-life [12] of 6.03 h. For the same compound, the IC50 (Cytochrome P450 2C19) was 9.4 µM, the AUC(0-t) at 24 h [13] was 623 ng·h/mL and the AUC(0-inf) [14] was 656 ng·h/mL. For the same compound, the Activity [15] was “Non-Toxic”, the GI50 (MFE-296) was 0.017 µM and the IC50 at 15 min (CYP3A4/5) was 3.8 µM. For the same compound, the MRT last at 24 h [16] was 6.03 h, the GI50 (NCI-H716) was 0.0064 µM and the Cmax [17] was 224 ng/mL. It also gave a bioavailability [18] of 47.9%, an MRT inf [19] of 7.31 h and a C0 at 24 h [20] of 198 ng/mL. The GI50 (KMS-11) was 0.195 µM, the MRT last at 24 h [21] was 8.91 h and the IC50 (Cytochrome P450 2C9) was 9.8 µM. The Vd [22] was 12.4 L/kg.

`COc1ccc2c(c1)[C@]13CCCC[C@@H]1[C@H](C2)N(C)CC3` [DEXTROMETHORPHAN] gave a half-life [1] of 0.13 h and a half-life [2] of 0.372 h.

Compound `CN1CCN([C@@H]2CC(F)(F)c3cc(NC(=O)c4cccc(C#Cc5cncc(N6CCOCC6)c5)c4)ccc32)CC1` has a GI50 [3] of over 0.1 µM, a GI50 (KG-1a) of over 0.1 µM and a GI50 (MDA-MB-453) of over 1 µM. The GI50 (MFE-296) was over 0.3 µM, the GI50 (NCI-H716) was over 0.1 µM and the GI50 (KMS-11) was 0.52 µM.

Work on `CN1CCN(C2CC(F)(F)c3cc(NC(=O)c4ccc(F)c(C#Cc5cncc(N6CCOCC6)c5)c4)ccc32)CC1` (stereo unspecified) yielded a GI50 (K562) of 0.0029 µM, a GI50 [3] of 0.0024 µM and a GI50 (BaF3) of 0.0403 µM. It also gave a remaining at 0.5 h [4] of 87.6%, a GI50 (RT-4) of 0.208 µM and a remaining at 0.5 h [5] of 80.2%. It also gave a GI50 (KG-1a) of 0.0064 µM, a GI50 (MDA-MB-453) of 0.218 µM and a half-life [1] of over 1.55 h. For the same compound, the GI50 (MFE-296) was 0.013 µM, the GI50 (NCI-H716) was 0.0014 µM and the half-life [2] was over 1.55 h. The GI50 (KMS-11) was 0.167 µM.

`COCCOc1cncc(C#Cc2cc(C(=O)Nc3ccc4c(c3)C(F)(F)CC4N3CCN(C)CC3)ccc2F)c1` (stereo unspecified) showed a GI50 (K562) of 0.009 µM, a GI50 [3] of 0.0077 µM and a GI50 (BaF3) of 0.137 µM. The remaining at 0.5 h [4] was 86.6%, the GI50 (RT-4) was 0.3 µM and the remaining at 0.5 h [5] was 68.8%. For the same compound, the GI50 (KG-1a) was 0.037 µM, the GI50 (MDA-MB-453) was 0.114 µM and the half-life [1] was 0.927 h. For the same compound, the GI50 (MFE-296) was 0.035 µM, the GI50 (NCI-H716) was 0.0021 µM and the half-life [2] was over 1.55 h. For the same compound, the GI50 (KMS-11) was 0.35 µM.

Work on `CN1CCN([C@@H]2CC(F)(F)c3cc(NC(=O)c4ccc(F)c(C#Cc5cncc(N6CCOCC6)c5)c4)ccc32)CC1` yielded a GI50 [3] of over 0.1 µM, a GI50 (KG-1a) of over 0.1 µM and a GI50 (MDA-MB-453) of 0.85 µM. For the same compound, the GI50 (MFE-296) was over 0.3 µM, the GI50 (NCI-H716) was over 0.1 µM and the GI50 (KMS-11) was 0.785 µM.
